Key:
[1] = system: ovarian steroidogenosis; assay: inhibitory activity on ovarian steroidogenosis in women (seric progesterone by radioimmunoassay); format: in vivo; details: for seric level of progesterone, reduction compared to the controls: 500 μg intranasal at 8 A.M. and 5 P.M. of one luteal-phase day, typical case (sheet 3); for level of progesterone as % of pretreatment cycles (100%): 12 cycles
Description: The study was conducted for 6 consecutive cycles consisting of 2 pretreatment cycles, 2 treatment cycles and 2 post-treatment cycles. […] Daily blood samples were taken between 4 and 6 P.M. to measure seric levels of LH, FSH, progesterone and estradiol which were determined by radioimmuno-logictests with double antibodies. The antibodies to measure LH and FSH were furnished by the National Pituitory Agency of N.I.H. of Bethesda, Md.
Estradiol and progesterone were measured with highly specific antibodies developed against 7-(0-carboxymethyl)-oxime of estradiol and 12-(0-carboxymethyl)-oxime of progesterone, respectively [3H] 17β-estradiol and ^125 I-progesterone-12-[0-carboxymethyl)-oxime]used as tracers. The serum was extracted with benzene and the steroids were separated with a LH-20 column before the determination. The radioimmunological results were exploited by the program derived from model II of Rodbard and Lewald as in Example 1 and the statistical significance was measured by the multiple level test of Ducan-Kramer of Example 1. The results shown in the graphs of sheets 3 to 5 of the Figures.

[2] = system: testicular steroidogensis; assay: inhibitory activity against testicular steroidogenesis in men in good health (seric LH, FSH and steroids by radioimmunoassay); format: in vivo
Description: The said product was administered intranasally at a dose of 500 μg in a few drops of distilled water at 8 A.M. on the third day of the test. For 2 days prior to the treatment and for 6 days after the treatment, samples of blood were taken daily at 8 A.M., 3 P.M. and 10 P.M. On the day of administration of the LH-RH agonist, blood samples were taken at 11 A.M. and 6 P.M.
The series concentrations of LH and FSH were measured by radioimmuno-logic dosages with double antibodies and the antibodies for measuring LH and FSH were furnished by the National Pituitary Agency of N.I.H. in Bethesda, Md. The seric concentrations of steroids was measured by radioimmuno-logic dosages in which one ml of serum was extracted with ether and the steroids were separated on a LH-20 column before measuring with radioimmuno-logic dosages. The radioimmuno-logic dosage results were determined by a program derived from model II of Rodbard et al [Second Karolinska Symposium on Research Methods in Reproductive Endrocrinology, Diczfalusky Editor, Copenhague (1970), p. 79-103]. The statistical significance was determined by the "multiple level test" of Duncan-Kramer [Kramer, Biometrics, Vol. 12 (1956), p. 307]. The results are shown in the graphs on sheet 1 of the Figures filed herewith.

[3] = system: testicular steroidogenosis; assay: inhibitory activity on testicular steroidogenosis in a patient with prostate cancer; format: in vivo, human; details: intranasal 500 μg twice a day
Text: The inhibitory activity of [D Ser (tbu)^6 des Gly NH2^10 ] […] The results are reported in the graphs of sheet 2 of the Figures.

[4] = 12 cycles of treatment (sheet 5)

## CCNC(=O)[C@@H]1CCCN1C(=O)[C@H](CCCNC(=N)N)NC(=O)[C@H](CC(C)C)NC(=O)[C@@H](COC(C)(C)C)NC(=O)[C@H](Cc1ccc(O)cc1)NC(=O)[C@H](CO)NC(=O)[C@H](Cc1c[nH]c2ccccc12)NC(=O)[C@H](Cc1c[nH]cn1)NC(=O)[C@@H]1CCC(=O)N1 [[D Ser (tbu)^6 des Gly NH2^10]LH-RH ethylamide]
[1]; first cycle of treatment
  seric level of progesterone, reduction compared to the controls: 13%
[1]; second cycle of treatment
  seric level of progesterone, reduction compared to the controls: 34%
[1]; [4]
  level of progesterone, reduction compared to the controls: 46%
  scale (range) of the level of progesterone compared to the controls: 13 to 127%
[1]; cycles of post-treatment
  level of progesterone as % of pretreatment cycles (100%): 99%
[1]; cycles of treatment
  level of progesterone as % of pretreatment cycles (100%): 46%
[2]; human, single intranasal dose 500 μg
  day after administration on which the steroid level returned to normal: fourth day
[2]; men, intranasal 500 μg
  time to return of LH and FSH to normal levels after administration: 8 to 12 h
[2]; men, intranasal 500 μg, day after treatment, different subjects, elevated from 20 to 35
  seric concentration of 17β-estradiol after the deferred elevation: 100 to 250 pg/mL
[2]; men, intranasal 500 μg, day of treatment
  seric concentration of pregnenolone, 17-OH-pregnenolone, progesterone, 17-OH-progesterone, Δ5-androstene-3β,17β-diol and testosterone on the day of treatment: increased
[3]
  level of androgenic steroids in plasma: diminution
[3]; two weeks of treatment
  level of testosterone: stabilized at a very low level

— patent US4743589A, “Treatment of endometriosis” (Roussel UCLAF, priority 1979, dated 1988)
